One may read the IC50 as the concentration that gives 50% inhibition.

One assay deals with HCC461. Briefly: cell viability assay in HCC461, compound alone. Format: cell-based. Conditions: HCC461, HCC461; Tables 6-9; read-out: IC50 (μM) in cell viability assay in HCC461.
Take `CN[C@@H](C)C(=O)N[C@H](C(=O)N[C@@H](CCCCNC(=O)c1cccc(C(=O)N[C@H]2CC(C(=O)N[C@H](C)c3ccccc3)N(C(=O)[C@@H](NC(=O)[C@H](C)NC)C(C)(C)C)C2)c1)C(=O)N[C@@H](C)C(C)C)C(C)C` (stereo partly shown) [Compound 162]: the concentration for half-maximal inhibition (IC50) was above 30 µM. `CN[C@@H](C)C(=O)N[C@@H](CCC(=O)N[C@H]1CC(C(=O)N[C@H](C)c2ccccc2)N(C(=O)[C@@H](NC(=O)[C@H](C)NC)C(C)(C)C)C1)C(=O)N[C@H](C(=O)N[C@@H](C)C(C)C)C(C)(C)C` (stereo partly shown) [Compound 164]: the IC50 is above 30 µM.

Staying with this assay, now noted: HCC461, HCC461; Tables 15-18; read-out: IC50 (uM) in cell viability assay in HCC461.
For `CCN[C@@H](C)C(=O)C[C@H](C(=O)N1CCC[C@H]1C(=O)N[C@@H]1CCCc2ccccc21)c1ccc(C#CCO[C@H](C)[C@H](NC(=O)[C@H](C)NC)C(=O)N2CCC[C@H]2C(=O)N[C@@H]2CCCc3ccccc32)cc1` [Compound H-1], the 50% inhibitory concentration (IC50) amounted to 0.0171 µM.

Turning to `C#CC[C@H](NC(=O)[C@H](C)NC)C(=O)N1C[C@@H](n2cc(C[C@H](NC(=O)[C@H](C)NC)C(=O)N3C[C@@H](N=[N+]=[N-])C[C@H]3C(=O)N[C@@H]3CCCc4ccccc43)nn2)C[C@H]1C(=O)N[C@@H]1CCCc2ccccc21` [Compound H-2], the IC50 was found to be 0.114 µM. For `CN[C@@H](C)C(=O)N[C@@H](Cc1ccc(O[C@H]2C[C@@H](C(=O)N[C@@H]3CCCc4ccccc43)N(C(=O)[C@@H](NC(=O)[C@H](C)NC)C(C)(C)C)C2)cc1)C(=O)N1CCCC1` [Compound H-3], the IC50 came out at 0.088 µM. As to `CCC[C@H](NC)C(=O)N[C@H](C(=O)N1CC[C@H](NC(=O)c2cccc(C(=O)N[C@H]3C[C@@H](C(=O)N[C@@H]4CCCc5ccccc54)N(C(=O)[C@@H](NC(C)[C@H](C)NC)C(C)C)C3)c2)C1)C(C)(C)C` (stereo partly shown) [Compound H-4], the IC50 was 1.69 µM. Turning to `CN[C@@H](C)C(=O)NC(C(=O)N1CCC[C@H]1C(=O)NC1CCCc2ccccc21)c1ccc(C#Cc2ccc(C(NC(=O)[C@H](C)NC)C(=O)N3CCC[C@H]3C(=O)NC3CCCc4ccccc43)cc2)cc1` (stereo partly shown) [Compound P2-1], the IC50 amounted to 0.018 µM. On the same count and under the same terms, then `CN[C@@H](C)C(=O)NC(C(=O)N1CCC[C@H]1C(=O)NC1CCCc2ccccc21)c1ccc(-c2ccc(C(NC(=O)[C@H](C)NC)C(=O)N3CCC[C@H]3C(=O)NC3CCCc4ccccc43)cc2)cc1` (stereo partly shown) [Compound P2-2], with 0.098 µM; and `CN[C@@H](C)C(=O)N[C@H](C(=O)N1CCC[C@H]1C(=O)N[C@@H]1CCCc2ccccc21)c1ccc(OCc2ccccc2COc2ccc([C@H](NC(=O)[C@H](C)NC)C(=O)N3CCC[C@H]3C(=O)N[C@@H]3CCCc4ccccc43)cc2)cc1` [Compound P2-3], with 0.072 µM; and `CN[C@@H](C)C(=O)N[C@@H](CCCCCC[C@H](NC(=O)[C@H](C)NC)C(=O)N1CCC[C@H]1C(=O)N(C)Cc1ccccc1)C(=O)N1CCC[C@H]1C(=O)N(C)Cc1ccccc1` [Compound P2-4], with 0.037 µM. On the same count and under the same terms, then `CN[C@@H](C)C(=O)N[C@@H](CC#CC#CC[C@H](NC(=O)[C@H](C)NC)C(=O)N1CCC[C@H]1C(=O)NC1c2ccccc2-c2ccccc21)C(=O)N1CCC[C@H]1C(=O)NC1c2ccccc2-c2ccccc21` [Compound P2-5], with 0.091 µM. The same measure, in the same setting: then `CN[C@@H](C)C(=O)N[C@@H](CCCCCC[C@H](NC(=O)[C@H](C)NC)C(=O)N1CCC[C@H]1C(=O)NC1c2ccccc2-c2ccccc21)C(=O)N1CCC[C@H]1C(=O)NC1c2ccccc2-c2ccccc21` [Compound P2-6], with 0.024 µM; and `CN[C@@H](C)C(=O)N[C@@H](CCCCCC[C@H](NC(=O)[C@H](C)NC)C(=O)N1CCC[C@H]1C(=O)NCc1ccc(F)cc1)C(=O)N1CCC[C@H]1C(=O)NCc1ccc(F)cc1` [Compound P2-7], with 0.17 µM; and `CN[C@@H](C)C(=O)N[C@@H](CC#CC#CC[C@H](NC(=O)[C@H](C)NC)C(=O)N1C[C@@H](NS(=O)(=O)c2ccccc2)C[C@H]1C(=O)N[C@@H]1CCCc2ccccc21)C(=O)N1C[C@@H](NS(=O)(=O)c2ccccc2)C[C@H]1C(=O)N[C@@H]1CCCc2ccccc21` [Compound P2-11], with 0.171 µM. Turning to `CC[C@H](NC)C(=O)N[C@@H](CCCCCC[C@H](NC(=O)[C@H](CC)NC)C(=O)N1CCC[C@H]1C(=O)N[C@@H]1CCCc2ccccc21)C(=O)N1CCC[C@H]1C(=O)N[C@@H]1CCCc2ccccc21` [Compound P2-12], the concentration for half-maximal inhibition (IC50) turned out to be 0.021 µM.

With `CN[C@@H](C)C(=O)N[C@@H](CCCCCC[C@H](NC(=O)[C@H](C)NC)C(=O)N1C[C@@H](NS(=O)(=O)c2ccccc2)C[C@H]1C(=O)N[C@@H]1CCCc2ccccc21)C(=O)N1C[C@@H](NS(=O)(=O)c2ccccc2)C[C@H]1C(=O)N[C@@H]1CCCc2ccccc21` [Compound P2-14], the IC50 was found to be 0.092 µM. Take `CN[C@@H](C)C(=O)N[C@H](C(=O)N1CCC[C@H]1C(=O)NC1c2ccccc2-c2ccccc21)[C@@H](C)OCC#CC#CCO[C@H](C)[C@H](NC(=O)[C@H](C)NC)C(=O)N1CCC[C@H]1C(=O)NC1c2ccccc2-c2ccccc21` [Compound P2-15]: the IC50 came to 0.07 µM. On the same count and under the same terms, next, `CN[C@@H](C)C(=O)N[C@H](C(=O)N1CCC[C@H]1C(=O)NC1c2ccccc2-c2ccccc21)[C@@H](C)OCCCCCCO[C@H](C)[C@H](NC(=O)[C@H](C)NC)C(=O)N1CCC[C@H]1C(=O)NC1c2ccccc2-c2ccccc21` [Compound P2-16]: 0.03 µM.

Still in this assay, the particulars now being: HCC461; Tables 6-9; read-out: IC50 (μM) in cell viability assay in HCC461.
Consider `CN[C@@H](C)C(=O)N[C@H](C(=O)N[C@@H](CCCCNC(=O)c1cccc(C(=O)N[C@H]2CC(C(=O)N[C@@H]3CCc4ccccc4C3)N(C(=O)[C@@H](NC(=O)[C@H](C)NC)C(C)(C)C)C2)c1)C(=O)N[C@@H](C)C(C)C)C(C)(C)C` (stereo partly shown) [Compound 161], for which the IC50 is 2.5 µM.

As for `CN[C@@H](C)C(=O)N[C@@H](CCC(=O)N[C@H]1CC(C(=O)N[C@@H]2CCc3ccccc3C2)N(C(=O)[C@@H](NC(=O)[C@H](C)NC)C(C)(C)C)C1)C(=O)N[C@H](C(=O)N[C@@H](C)C(C)C)C(C)(C)C` (stereo partly shown) [Compound 163], the IC50 is above 30 µM. Regarding `CN[C@@H](C)C(=O)N[C@H](C(=O)N1C[C@@H](NC(=O)c2cccc(C(=O)NCCCC[C@H](NC(=O)[C@@H](NC(=O)[C@H](CO)NC)C(C)(C)C)C(=O)N[C@@H](C)C(C)C)c2)CC1C(=O)N[C@@H]1CCc2ccccc2C1)C(C)(C)C` (stereo partly shown) [Compound 165], the half-inhibitory concentration (IC50) was above 30 µM.

The same assay, now with this note: HCC461; Tables 15-18; read-out: IC50 (uM) in cell viability assay in HCC461.
`CC[C@H](NC)C(=O)N[C@@H](CC#CC#CC[C@H](NC(=O)[C@H](CC)NC)C(=O)N1CCC[C@H]1C(=O)N[C@@H]1CCCc2ccccc21)C(=O)N1CCC[C@H]1C(=O)N[C@@H]1CCCc2ccccc21` [Compound P2-8]: the IC50 came out at 0.009 µM. As to `CC[C@H](NC)C(=O)N[C@@H](CC#CC#CC[C@H](NC(=O)[C@H](CC)NC)C(=O)N1CCC[C@H]1C(=O)N[C@@H]1CCCc2ccccc21)C(=O)N1CCC[C@H]1C(=O)N[C@@H]1CCCc2ccccc21` [Compound P2-9], the IC50 amounted to 0.025 µM. In the case of `CN[C@@H](C)C(=O)N[C@@H](CC#CC#CC[C@H](NC(=O)[C@H](C)NC)C(=O)N1C[C@@H](NC(C)c2ccccc2)C[C@H]1C(=O)N[C@@H]1CCCc2ccccc21)C(=O)N1C[C@@H](NC(=O)c2ccccc2)C[C@H]1C(=O)N[C@@H]1CCCc2ccccc21` (stereo partly shown) [Compound P2-10], the half-inhibitory concentration (IC50) came to 0.109 µM. For `CN[C@@H](C)C(=O)N[C@@H](CCCCCC[C@H](NC(=O)[C@H](C)NC)C(=O)N1C[C@@H](NC(=O)c2ccccc2)C[C@H]1C(=O)N[C@@H]1CCCc2ccccc21)C(=O)N1C[C@@H](NC(=O)c2ccccc2)C[C@H]1C(=O)N[C@@H]1CCCc2ccccc21` [Compound P2-13], the IC50 worked out at 0.168 µM.
